Positions of bridges follow the written chain, without caps; N, C: chain ends. Non-standard residues stand in square brackets, D forms with d. Residues, ends and D or L forms follow the SMILES beside them. No end group written: not given here. R8 = C=CCCCCCC[C@@](C)(N)C(=O)O; S5 = C=CCCC[C@](C)(N)C(=O)O
Tests used:
Vero cells = assay: Cytotoxicity observed in the plaque reduction assays; type: cell-based, African green monkey
Method: (§1) Cells with ~90% confluence in 48-well plates were infected by absorbing virus (~100 PFU/well) for 1 h in 100 µL growth medium followed by adding 200 µL culture medium containing DMSO vehicle or serially diluted peptides or Acyclovir (Tocris Bioscience-Fisher Scientific) to each well of the plate. DMSO was maintained at 1% throughout the treatment. Cells were subsequently fixed and stained with 300 µL PBS containing 4% formaldehyde and 0.2% crystal violet overnight at room temperature. HSV-1 plaques were quantified at ~55 h post-infection of Vero cells. VV (WR strain) infection of BSC-1 cells was analyzed for plaque formation after 24 h. The plaque reduction assays were performed in duplicate and independently repeated twice. Cells were stained, and plaques counted under a dissecting microscope. Data were plotted on the GraphPad Prism.
Cellular cytotoxicity of the N-terminal substituted stapled peptides was also assessed. S-pep7A caused observable cell death at 50 µM in the plaque assays.

HSV-1 [1] = assay: microbe, parasite or virus in culture; type: cell-based; conditions: 1 h
Method: as §1
Standard viral plaque reduction assays were conducted in Vero cells to determine if any of the five stapled peptides (S-pep1/3/4/7/8) that were able to block processive DNA synthesis, could also block HSV-1 infection. To minimize possible interference of HSV-1 cell attachment and entry by the peptides, cells were first infected by absorbing the virus for 1 h, followed by treatment with peptides at serial dilutions. […] The EC50 values of both S-pep3 and S-pep8 were approximately 100 µM (FIG. 15C and FIG. 15F). Additionally, S-pep4 was toxic at 12.5 µM, which precluded further optimization.

[2] = ATP-based cytotoxicity in human primary corneal epithelial cells; type: cell-based; conditions: read-out: CC50 by ATP measurement
Method: (§2) Cells were grown in 96-well plates to ~80% confluence and treated with peptides at different concentrations in 150 µL growth medium containing 1% DMSO. At 24 h post-treatment, 100 µL of the culture medium was used for the lactate dehydrogenase (LDH) cytotoxicity assay. In addition, the cells from the same treatment were assessed with an ATP-based cell viability assay. Briefly, after the growth medium was completely removed, the cells were lysed in 100 µL of 1% Triton X-100 in PBS per well at room temperature. After 10 min, 5 µL of lysate was used for ATP-based luciferase/luminescence assay according to the manufacturer’s protocol (Invitrogen, USA). The assays were performed in triplicate and independently repeated twice.

[3] = test system: HSV-1 viral DNA (UL42 gene); assay: HSV-1 DNA replication in infected Vero cells (UL42 gene PCR); type: cell-based
Method: Confluent Vero cells in 48-well plates were infected by absorbing 10^5 PFU of HSV-1 (MOI ~1) for 1 h in 100 µL of DMEM medium containing 5% FBS. Unabsorbed virus was removed by washing the wells 4 times with PBS. Cells were then treated with S-pep7B (SEQ ID NO:32) peptide in triplicate at different dilutions in 300 µL growth medium containing 1% DMSO. At 4 h post-treatment, cells of each triplicate treatment were combined and lysed with 20 mM Tris buffer (pH 7.5) containing 20 mM EDTA, 0.5% SDS, and 0.5 mg/mL proteinase K. Total DNA was then prepared from the lysed cells with phenol/chloroform extraction and ethanol precipitation, and used for UL42 gene amplification by PCR using the primers described above for plasmid construction. After agarose gel electrophoresis, UL42 DNA levels were quantitated using an image capture and analysis system (G:Box Chemi HR, Syngene) and normalized to that of the cellular house-keeping gene GAPDH (glyceraldehyde-3-phosphate dehydrogenase), which was amplified using primers (forward: 5′-[…]-3′ (SEQ ID NO:55), and reverse: 5′-[…]-3′) (SEQ ID NO:56). The assays were independently repeated twice.
Experiments were subsequently performed to determine if the HSV-1 antiviral activity of S-pep7B was specifically due to the inhibition of viral DNA replication. […]

HSV-1 [4] = assay: HSV-1 infection of human 3D organotypic corneal culture; type: cell-based; conditions: 25 µM, 5 days treatment, 3D organotypic corneal tissue
Description: Cultures were assembled with human dermal fibroblasts isolated from newborn foreskins and primary human corneal epithelial cells isolated from unused sclerolimbal rings from corneal transplants. After three weeks, organotypic cultures with differentiated corneal epithelial cells overlaying a layer of fibroblasts are established, reproducing the organization of the anterior corneal surface (FIG. 23A).
The assembled 3D organotypic corneal culture was infected with HSV-1 by gently abrading the surface and topically applying 10^6 PFU/mL of HSV-1. After 1 h, unabsorbed virus was removed, and the culture was incubated in medium containing 25 µM S-pep7B in 0.5% DMSO. Treatment occurred over a period of 5 days, in which the medium containing S-pep7B was refreshed every other day. The corneal tissues were examined microscopically each day. At the end of the treatment period, the 3D tissue was cut in half, using the first half to measure the virus titer by plaque assay and the other half for histological examination.

[5] = test system: vaccinia virus (VV, WR strain); type: cell-based; conditions: BSC-1 cells, plaques after 24 h
[6] = Cytotoxicity and cell viability assays (ATP content, LDH leakage) in Vero cells; type: cell-based; conditions: African green monkey, 24 h treatment
Method: as §2

[7] = target: T1, HSV-1 Processivity Factor (UL42) (HSV-1 (strain KOS), UniProt P10226 1-488); assay: cell-based or functional assay
T1 sequence: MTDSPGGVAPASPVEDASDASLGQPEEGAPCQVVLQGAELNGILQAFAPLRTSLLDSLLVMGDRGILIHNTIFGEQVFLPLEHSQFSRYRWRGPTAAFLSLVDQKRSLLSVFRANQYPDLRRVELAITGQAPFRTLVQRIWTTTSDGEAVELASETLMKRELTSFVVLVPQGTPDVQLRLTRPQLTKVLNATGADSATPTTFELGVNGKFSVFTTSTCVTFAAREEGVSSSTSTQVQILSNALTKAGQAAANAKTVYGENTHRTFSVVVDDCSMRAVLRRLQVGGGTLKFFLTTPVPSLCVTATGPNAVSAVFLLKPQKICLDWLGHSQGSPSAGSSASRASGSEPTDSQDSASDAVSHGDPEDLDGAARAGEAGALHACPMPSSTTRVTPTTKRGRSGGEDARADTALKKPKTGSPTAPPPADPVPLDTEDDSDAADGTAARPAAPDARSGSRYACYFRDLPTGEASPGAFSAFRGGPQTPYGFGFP

## CC(=O)N[C@H](C(=O)N[C@H](C(=O)N[C@@H](CCCNC(=N)N)C(=O)N[C@@H](CCCNC(=N)N)C(=O)N[C@@]1(C)CCCC=CCCC[C@@](C)(C(=O)N[C@@H](Cc2ccccc2)C(=O)N[C@@H](CC(=O)O)C(=O)N[C@H](C(=O)N[C@@H](CC(C)C)C(=O)N[C@@H](C)C(=O)O)[C@@H](C)O)NC(=O)[C@H](CCCNC(=N)N)NC(=O)[C@H](Cc2c[nH]cn2)NC(=O)[C@H](CC(C)C)NC1=O)[C@@H](C)O)C(C)C [S-pep7A, Ac-VTRRXLHRXFDTLA] (Ac-VTRR[S5]LHR[S5]FDTLA-OH; staple 5-9; C-terminus assumed)
Vero cells
  concentration at which toxicity / cell death was observed in the plaque assays: 50 µM
HSV-1 [1]
  EC50: 9.6 µM

## CC(=O)N[C@H](C(=O)N[C@H](C(=O)N[C@H](C(=O)N[C@@H](CCCNC(=N)N)C(=O)N[C@@H](CCCNC(=N)N)C(=O)N[C@@]1(C)CCCC=CCCC[C@@](C)(C(=O)N[C@@H](Cc2ccccc2)C(=O)N[C@@H](CC(=O)O)C(=O)N[C@H](C(=O)N[C@@H](CC(C)C)C(=O)N[C@@H](C)C(=O)O)[C@@H](C)O)NC(=O)[C@H](CCCNC(=N)N)NC(=O)[C@H](Cc2c[nH]cn2)NC(=O)[C@H](CC(C)C)NC1=O)[C@@H](C)O)C(C)C)C(C)C [S-pep7B, Ac-VVTRRXLHRXFDTLA] (Ac-VVTRR[S5]LHR[S5]FDTLA-OH; staple 6-10; C-terminus assumed)
[2]
  CC50 at 24 h: 31.2 µM
[3]; 50 µM, 4 h post-treatment
  viral DNA level relative to time point 0 h: completely suppressed
[3]; MOI ~1, 4 h post-treatment, increasing concentrations, normalized to GAPDH
  UL42 DNA levels in infected cells: greatly reduced
Vero cells
  concentration at which toxicity / cell death was observed in the plaque assays: no visible cytotoxicity
HSV-1 [4]
  HSV-1 structural gB protein (immunostaining): complete absence
  nuclear morphology (DAPI staining): unremarkable nuclear morphology
[5]
  inhibition of VV infection of cells: did not inhibit
HSV-1 [1]
  EC50: 9.8 µM
[6]; read-out: CC50, LDH leakage
  CC50 at 24 h: 126 µM
[6]; read-out: CC50, intracellular ATP content
  CC50 at 24 h: 114 µM

## CC(=O)N[C@@H](CCCNC(=N)N)C(=O)N[C@H](C(=O)N[C@@H](CCCNC(=N)N)C(=O)N[C@@H](CCCNC(=N)N)C(=O)N[C@@]1(C)CCCC=CCCC[C@@](C)(C(=O)N[C@@H](Cc2ccccc2)C(=O)N[C@@H](CC(=O)O)C(=O)N[C@H](C(=O)N[C@@H](CC(C)C)C(=O)N[C@@H](C)C(=O)O)[C@@H](C)O)NC(=O)[C@H](CCCNC(=N)N)NC(=O)[C@H](Cc2c[nH]cn2)NC(=O)[C@H](CC(C)C)NC1=O)[C@@H](C)O [S-pep7C, Ac-RTRRXLHRXFDTLA] (Ac-RTRR[S5]LHR[S5]FDTLA-OH; staple 5-9; C-terminus assumed)
Vero cells
  concentration at which toxicity / cell death was observed in the plaque assays: 5 µM

## CC(=O)N[C@@H](CCCNC(=N)N)C(=O)N[C@@H](CCCNC(=N)N)C(=O)N[C@H](C(=O)N[C@@H](CCCNC(=N)N)C(=O)N[C@@H](CCCNC(=N)N)C(=O)N[C@@]1(C)CCCC=CCCC[C@@](C)(C(=O)N[C@@H](Cc2ccccc2)C(=O)N[C@@H](CC(=O)O)C(=O)N[C@H](C(=O)N[C@@H](CC(C)C)C(=O)N[C@@H](C)C(=O)O)[C@@H](C)O)NC(=O)[C@H](CCCNC(=N)N)NC(=O)[C@H](Cc2c[nH]cn2)NC(=O)[C@H](CC(C)C)NC1=O)[C@@H](C)O [S-pep7D, Ac-RRTRRXLHRXFDTLA] (Ac-RRTRR[S5]LHR[S5]FDTLA-OH; staple 6-10; C-terminus assumed)
Vero cells
  concentration at which toxicity / cell death was observed in the plaque assays: 5 µM

## CC(=O)N[C@@H](CCCNC(=N)N)C(=O)N[C@@H](CCCNC(=N)N)C(=O)N[C@@]1(C)CCCC=CCCCCCC[C@](C)(C(=O)N[C@@H](CC(C)C)C(=O)N[C@@H](C)C(=O)O)NC(=O)[C@H](CC(=O)O)NC(=O)[C@H](Cc2ccccc2)NC(=O)[C@H](C)NC(=O)[C@H](CCCNC(=N)N)NC(=O)[C@H](Cc2c[nH]cn2)NC(=O)[C@H](CC(C)C)NC1=O [S-pep4, Ac-RRXLHRAFDZLA] (Ac-RR[S5]LHRAFD[R8]LA-OH; staple 3-10; C-terminus assumed)
Vero cells
  concentration at which toxicity / cell death was observed in the plaque assays: 12.5 µM

## Ac-ETRRMLHRAFDTLA [Native peptide (N-pep)]
[7]
  IC50 of in vitro processive DNA synthesis directed by recombinant UL30 and UL42: > 200 µM
